Reference: the NIST ThermoML archive (doi:10.1016/j.jct.2013.06.009)
± gives the expanded uncertainty stated by the source.

What was measured:
[1] = wn = mass fraction of the nth substance listed; settings: 101.33 kPa, Liquid, w1 = 0.009; for viscosity: Capillary tube (Ostwald / Ubbelohde) method; for mass density: Vibrating tube method
[2] = 101.33 kPa, Liquid; for viscosity: Capillary tube (Ostwald / Ubbelohde) method; for mass density: Vibrating tube method
[3] = mn = molality of the nth substance listed, in mol/kg; settings: 101.33 kPa, Liquid, m2 = 0; for viscosity: Capillary tube (Ostwald / Ubbelohde) method; for mass density: Vibrating tube method

A viscosity ([1]; 278.15 K) of 1.53 ± 0.032 mPa·s, a mass density ([1]; 278.15 K) of 1006.09 ± 0.21 kg/m3 and a viscosity ([1]; 283.15 K) of 1.321 ± 0.028 mPa·s were found for [Cl-].[Na+] [sodium chloride] + O in this work. For the same compound, the mass density ([1]; 283.15 K) was 1005.64 ± 0.21 kg/m3, the viscosity ([1]; 288.15 K) was 1.154 ± 0.024 mPa·s and the mass density ([1]; 288.15 K) was 1005.07 ± 0.21 kg/m3. It also gave a viscosity ([1]; 293.15 K) of 1.015 ± 0.021 mPa·s, a mass density ([1]; 293.15 K) of 1004.14 ± 0.21 kg/m3 and a viscosity ([1]; 298.15 K) of 0.9068 ± 0.019 mPa·s. The mass density ([1]; 298.15 K) was 1002.96 ± 0.21 kg/m3, the viscosity ([1]; 303.15 K) was 0.8105 ± 0.017 mPa·s and the mass density ([1]; 303.15 K) was 1001.47 ± 0.21 kg/m3. For the same compound, the viscosity ([1]; 308.15 K) was 0.7363 ± 0.015 mPa·s, the mass density ([1]; 308.15 K) was 999.75 ± 0.21 kg/m3 and the viscosity ([1]; 313.15 K) was 0.6641 ± 0.014 mPa·s. For the same compound, the mass density ([1]; 313.15 K) was 997.82 ± 0.21 kg/m3.

A viscosity ([2]; 278.15 K) of 1.521 ± 0.032 mPa·s, a mass density ([2]; 278.15 K) of 999.96 ± 0.2 kg/m3 and a viscosity ([2]; 283.15 K) of 1.307 ± 0.027 mPa·s were found for O [water] in this work. It also gave a mass density ([2]; 283.15 K) of 999.7 ± 0.2 kg/m3, a viscosity ([2]; 288.15 K) of 1.135 ± 0.024 mPa·s and a viscosity ([2]; 293.15 K) of 1.002 ± 0.021 mPa·s. The viscosity ([2]; 298.15 K) was 0.8903 ± 0.019 mPa·s, the viscosity ([2]; 303.15 K) was 0.7977 ± 0.017 mPa·s and the viscosity ([2]; 308.15 K) was 0.719 ± 0.015 mPa·s. The viscosity ([2]; 313.15 K) was 0.6532 ± 0.014 mPa·s.

A viscosity ([3]; 278.15 K) of 1.521 ± 0.032 mPa·s, a mass density ([3]; 278.15 K) of 999.96 ± 0.21 kg/m3 and a viscosity ([3]; 283.15 K) of 1.307 ± 0.027 mPa·s were found for O [water] + CO/N=C(\C(=O)N[C@@H]1C(=O)N2C(C(=O)O)=C(C[N+]3(C)CCCC3)CS[C@H]12)c1csc(N)n1.Cl.[Cl-] in this work. It also gave a mass density ([3]; 283.15 K) of 999.7 ± 0.21 kg/m3, a viscosity ([3]; 288.15 K) of 1.135 ± 0.024 mPa·s and a viscosity ([3]; 293.15 K) of 1.002 ± 0.021 mPa·s. The viscosity ([3]; 298.15 K) was 0.8903 ± 0.019 mPa·s, the viscosity ([3]; 303.15 K) was 0.7977 ± 0.017 mPa·s and the viscosity ([3]; 308.15 K) was 0.719 ± 0.015 mPa·s. The viscosity ([3]; 313.15 K) was 0.6532 ± 0.014 mPa·s.
